IC50 data for 44 compounds are collected here from ChEMBL document CHEMBL1149183, “Novel benzo[1,4]diazepin-2-one derivatives as endothelin receptor antagonists” (J Med Chem, 2004).

In test [1] the target is T1, Endothelin receptor type B (Homo sapiens, UniProt P24530).
T1 sequence (P24530 whole entry): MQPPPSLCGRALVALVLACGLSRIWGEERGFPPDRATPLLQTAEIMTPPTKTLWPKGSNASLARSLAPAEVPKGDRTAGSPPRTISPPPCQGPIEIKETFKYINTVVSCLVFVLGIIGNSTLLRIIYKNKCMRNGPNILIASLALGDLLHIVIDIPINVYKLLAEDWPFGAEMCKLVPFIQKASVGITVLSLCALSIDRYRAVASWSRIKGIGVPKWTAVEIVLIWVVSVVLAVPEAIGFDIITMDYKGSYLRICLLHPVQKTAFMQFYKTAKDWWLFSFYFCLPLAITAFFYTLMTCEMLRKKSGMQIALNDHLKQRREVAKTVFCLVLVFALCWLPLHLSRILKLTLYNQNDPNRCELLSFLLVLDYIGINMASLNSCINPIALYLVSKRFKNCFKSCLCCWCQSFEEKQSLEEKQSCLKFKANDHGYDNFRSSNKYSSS
The test can be described thus: Antagonist activity towards human recombinant Endothelin B receptor expressed in chinese hamster ovary (CHO) cells determined using [125I]ET1 as radioligand. The test is classed as functional, cell-based.

The target of a further test is T2, Endothelin-1 receptor (Homo sapiens, UniProt P25101).
T2 sequence (P25101 whole entry): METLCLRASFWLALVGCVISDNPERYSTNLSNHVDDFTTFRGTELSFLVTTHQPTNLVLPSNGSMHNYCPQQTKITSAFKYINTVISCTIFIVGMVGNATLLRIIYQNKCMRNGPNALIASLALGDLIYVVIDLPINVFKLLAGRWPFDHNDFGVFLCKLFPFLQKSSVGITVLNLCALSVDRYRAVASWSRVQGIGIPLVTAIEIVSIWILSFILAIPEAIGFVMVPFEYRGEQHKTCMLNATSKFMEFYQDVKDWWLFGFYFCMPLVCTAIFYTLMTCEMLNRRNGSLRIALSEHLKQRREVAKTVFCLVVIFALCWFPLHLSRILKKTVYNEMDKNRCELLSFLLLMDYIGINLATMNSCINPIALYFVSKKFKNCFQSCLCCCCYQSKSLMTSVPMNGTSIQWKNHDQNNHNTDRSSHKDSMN
The test can be described thus: Antagonist activity towards human recombinant Endothelin A receptor expressed in chinese hamster ovary (CHO) cells determined using [125I]ET1 as radioligand. The format is functional, cell-based.

The structures appear in SMILES notation. Bounds are passed on as bounds.

Usually IC50 stands for the concentration at which inhibition is half-maximal. On to `Cc1cccc(O[C@H](C(=O)O)[C@@]2(c3ccccc3)NCC(=O)N(Cc3c(Cl)cccc3Cl)c3ccccc32)c1` (racemic), for which the IC50 in test [1] came out at 0.745 µM; at Endothelin-1 receptor it was 0.029 µM.
Regarding `Cc1cc(C)nc(O[C@H](C(=O)O)[C@@]2(c3ccccc3)NCC(=O)N(Cc3ccc(F)cc3F)c3ccccc32)n1` (racemic), the IC50 in test [1] is 0.109 µM; at Endothelin-1 receptor, 0.006 µM.
The like results for `Cc1cc(C)nc(O[C@H](C(=O)O)[C@@]2(c3ccccc3)NCC(=O)N(CC(=O)O)c3ccccc32)n1` (racemic) were, in that order, 0.558 µM and 0.013 µM.
For `Cc1cc(C)nc(O[C@H](C(=O)O)[C@@]2(c3ccccc3)NCC(=O)N(Cc3ccc(C(C)(C)C)cc3)c3ccccc32)n1` (racemic), in that order: 0.0241 µM and 0.0171 µM.
For `Cc1cc(C)nc(O[C@H](C(=O)O)[C@@]2(c3ccccc3)NCC(=O)N(CC3CC3)c3ccccc32)n1` (racemic), the 50% inhibitory concentration (IC50) in test [1] turned out to be 0.0878 µM; on Endothelin-1 receptor, 0.0073 µM.
Consider `COc1cc(OC)cc(O[C@H](C(=O)O)[C@@]2(c3ccccc3)NCC(=O)N(C)c3ccccc32)c1` (racemic), for which the IC50 in test [1] was determined as 6.27 µM.
Take `Cc1cc(C)nc(O[C@H](C(=O)O)[C@@]2(c3ccccc3)NCC(=O)N(CC3CCCCC3)c3ccccc32)n1` (racemic): the figures for the half-maximal inhibitory concentration (IC50) (in test [1]; on Endothelin-1 receptor) were 0.082 µM and 0.0834 µM, respectively.
For `Cc1cc(C)nc(O[C@H](C(=O)O)[C@@]2(c3ccccc3)NCC(=O)N(Cc3ccccc3OC(F)(F)F)c3ccccc32)n1` (racemic), in that order: 0.0749 µM and 0.0986 µM.
`Cc1cc(C)nc(O[C@H](C(=O)O)[C@@]2(c3ccccc3)NCc3c(C(=O)O)nc(C)n3-c3ccccc32)n1` (racemic): the 50% inhibitory concentration (IC50) amounted to 0.711 µM in test [1] and 0.604 µM on Endothelin-1 receptor.
Turning to `COc1cc(OC)cc(O[C@H](C(=O)O)[C@@]2(c3ccccc3)NCC(=O)N(Cc3c(Cl)cccc3Cl)c3ccccc32)c1` (racemic), the IC50 in test [1] was found to be 0.392 µM; on Endothelin-1 receptor, 0.0462 µM.
The like results for `COc1ccc(CN2C(=O)CN[C@](c3cccc(Cl)c3)([C@H](Oc3nc(C)cc(C)n3)C(=O)O)c3ccccc32)cc1` (racemic) were, in that order, 0.0782 µM and 0.025 µM.
For `Cc1cc(C)cc(O[C@H](C(=O)O)[C@@]2(c3ccccc3)NCC(=O)N(Cc3c(Cl)cccc3Cl)c3ccccc32)c1` (racemic), in that order: 0.109 µM and 0.0205 µM.
The like results for `Cc1cc(C)nc(O[C@H](C(=O)O)[C@@]2(c3ccccc3)NCC(=O)N(Cc3ccccc3C)c3ccccc32)n1` (racemic) were, in that order, 0.055 µM and 0.0089 µM.
Turning to `Cc1cc(C)nc(O[C@H](C(=O)O)[C@@]2(c3ccccc3)NCC(=O)N(Cc3ccc(Br)cc3)c3ccccc32)n1` (racemic), the half-maximal inhibitory concentration (IC50) in test [1] amounted to 0.119 µM; at Endothelin-1 receptor it was 0.0258 µM.
Take `COc1ccc(CN2C(=O)CN[C@](c3ccccc3F)([C@H](Oc3nc(C)cc(C)n3)C(=O)O)c3ccccc32)cc1` (racemic): in test [1], the half-inhibitory concentration (IC50) is 0.0802 µM.
With `Cc1cc(C)nc(O[C@H](C(=O)O)[C@@]2(c3ccccc3)NCC(=O)N(CCCc3ccccc3)c3ccccc32)n1` (racemic), the half-maximal inhibitory concentration (IC50) in test [1] was 0.0183 µM; at Endothelin-1 receptor, 0.0171 µM.
The like results for `CC(C)c1ccc(O[C@H](C(=O)O)[C@@]2(c3ccccc3)NCC(=O)N(Cc3c(Cl)cccc3Cl)c3ccccc32)cc1` (racemic) were, in that order, 8.62 µM and greater than 10 µM.
The like results for `Cc1cc(C)nc(O[C@H](C(=O)O)[C@@]2(c3ccccc3)NCC(=O)N(Cc3ccc(Cl)cc3)c3ccccc32)n1` (racemic) were, in that order, 0.122 µM and 0.0173 µM.
Turning to `COc1ccc(CN2C(=O)CN[C@](c3cccc(OC)c3)([C@H](Oc3nc(C)cc(C)n3)C(=O)O)c3ccccc32)cc1` (racemic), the IC50 in test [1] worked out at 0.0943 µM; at Endothelin-1 receptor, 0.0102 µM.
On to `Cc1ccc(CN2C(=O)CN[C@](c3ccccc3)([C@H](Oc3nc(C)cc(C)n3)C(=O)O)c3ccccc32)cc1` (racemic), for which the concentration for half-maximal inhibition (IC50) in test [1] amounted to 0.0688 µM; on Endothelin-1 receptor, 0.0305 µM.
For `Cc1cc(C)nc(O[C@H](C(=O)O)[C@@]2(c3ccccc3)NCC(=O)N(CCN(C)C)c3ccccc32)n1` (racemic), in that order: 1.78 µM and 0.387 µM.
As to `COc1cc(OC)cc(O[C@H](C(=O)O)[C@@]2(c3ccccc3)NCC(=O)N(C)c3cc(OC)ccc32)c1` (racemic), the half-inhibitory concentration (IC50) in test [1] came out at 7.78 µM; at Endothelin-1 receptor it was 3.95 µM.
For `Cc1cc(C)nc(O[C@H](C(=O)O)[C@@]2(c3ccccc3)NCC(=O)N(Cc3cccc(OC(F)(F)F)c3)c3ccccc32)n1` (racemic), in that order: 0.0308 µM and 0.011 µM.
The like results for `CN1C(=O)CN[C@](c2ccccc2)([C@H](Oc2ncc(Br)cn2)C(=O)O)c2ccccc21` (racemic) were, in that order, 9.48 µM and 0.927 µM.
The like results for `Cc1cc(C)nc(O[C@H](C(=O)O)[C@@]2(c3ccccc3)NCC(=O)N(Cc3ccc(F)c(F)c3)c3ccccc32)n1` (racemic) were, in that order, 0.0328 µM and 0.0065 µM.
For `Cc1cc(C)nc(O[C@H](C(=O)O)[C@@]2(c3ccccc3)NCC(=O)N(Cc3cc(F)c(F)c(F)c3)c3ccccc32)n1` (racemic), the IC50 stood at 0.0253 µM in test [1] and 0.0118 µM at Endothelin-1 receptor.
In the case of `COc1cc(OC)cc(O[C@H](C(=O)O)[C@@]2(c3ccccc3)NCC(=O)N(C)c3cc(Cl)ccc32)c1` (racemic), the half-inhibitory concentration (IC50) in test [1] is 5.6 µM; on Endothelin-1 receptor it was 3.84 µM.
The like results for `Cc1cc(C)nc(O[C@H](C(=O)O)[C@@]2(c3ccccc3)NCC(=O)N(CCN3CCOCC3)c3ccccc32)n1` (racemic) were, in that order, 0.743 µM and 0.126 µM.
Consider `CN1C(=O)CN[C@](c2ccccc2)([C@H](Oc2ncccn2)C(=O)O)c2ccccc21` (racemic), for which the IC50 in test [1] was greater than 10 µM.
For `Cc1cc(C)nc(O[C@H](C(=O)O)[C@@]2(c3ccccc3)NCC(=O)N(Cc3cccc(F)c3F)c3ccccc32)n1` (racemic), the IC50 in test [1] was found to be 0.0185 µM; at Endothelin-1 receptor it was 0.0037 µM.
For `Cc1cc(C)nc(O[C@H](C(=O)O)[C@@]2(c3ccccc3)NCC(=O)N(Cc3cc(F)ccc3F)c3ccccc32)n1` (racemic), in that order: 0.0329 µM and 0.0067 µM.
For `COc1cccc(O[C@H](C(=O)O)[C@@]2(c3ccccc3)NCC(=O)N(Cc3c(Cl)cccc3Cl)c3ccccc32)c1` (racemic), in that order: 1.47 µM and 0.129 µM.
The like results for `Cc1cc(C)nc(O[C@H](C(=O)O)[C@@]2(c3ccccc3)NCC(=O)N(Cc3cccc(F)c3)c3ccccc32)n1` (racemic) were, in that order, 0.0268 µM and 0.0067 µM.
Turning to `COc1ccc(CN2C(=O)CN[C@](c3cccc(F)c3)([C@H](Oc3nc(C)cc(C)n3)C(=O)O)c3ccccc32)cc1` (racemic), the 50% inhibitory concentration (IC50) worked out at 0.0493 µM in test [1] and 0.0091 µM at Endothelin-1 receptor.
For `Cc1cc(C)nc(O[C@H](C(=O)O)[C@@]2(c3ccccc3)NCCCc3ccccc32)n1` (racemic), in that order: 7.84 µM and 0.0917 µM.
The like results for `CCCCC[C@]1([C@H](Oc2nc(C)cc(C)n2)C(=O)O)NCC(=O)N(Cc2ccc(OC)cc2)c2ccccc21` (racemic) were, in that order, 0.0736 µM and 0.355 µM.
The like results for `COc1cnc(O[C@H](C(=O)O)[C@@]2(c3ccccc3)NCC(=O)N(C)c3ccccc32)nc1` (racemic) were, in that order, 9.25 µM and 0.384 µM.
For `COc1ccc(CN2C(=O)CN[C@](c3cccc(C(F)(F)F)c3)([C@H](Oc3nc(C)cc(C)n3)C(=O)O)c3ccccc32)cc1` (racemic), the results for the IC50 (in test [1]; on Endothelin-1 receptor) were 0.241 µM and 0.0249 µM, respectively.
Regarding `COc1cc(OC)cc(O[C@H](C(=O)O)[C@@]2(c3ccccc3)NCC(=O)N(C)c3cc(OC)c(OC)cc32)c1` (racemic), the IC50 in test [1] was determined as 8.03 µM; on Endothelin-1 receptor it was 0.443 µM.
In the case of `Cc1cc(C)nc(O[C@H](C(=O)O)[C@@]2(c3ccccc3)NCC(=O)N(Cc3cccc(C(F)(F)F)c3)c3ccccc32)n1` (racemic), the IC50 in test [1] was 0.0156 µM; on Endothelin-1 receptor it was 0.0091 µM.
The like results for `Cc1cc(C)nc(O[C@H](C(=O)O)[C@@]2(c3ccccc3)NCC(=O)N(Cc3ccccc3Cl)c3ccccc32)n1` (racemic) were, in that order, 0.0481 µM and 0.0102 µM.
The like results for `Cc1cc(C)nc(O[C@H](C(=O)O)[C@@]2(c3ccccc3)NCC(=O)N(Cc3cccc(Br)c3)c3ccccc32)n1` (racemic) were, in that order, 0.0255 µM and 0.0064 µM.
For `COCCOCN1C(=O)CN[C@](c2ccccc2)([C@H](Oc2nc(C)cc(C)n2)C(=O)O)c2ccccc21` (racemic), the IC50 is 0.0478 µM in test [1] and 0.0075 µM on Endothelin-1 receptor.
For the compound `Cc1cc(C)nc(O[C@H](C(=O)O)[C@@]2(c3ccccc3)NCc3nnc(C)n3-c3ccccc32)n1` (racemic), the 50% inhibitory concentration (IC50) in test [1] came out at 0.25 µM.
